Results as given in patent US10441540B2, “Liposomal lupeol acetate and the use thereof in preparing drugs for rheumatoid arthritis” (NATIONAL YANG-MING UNIVERSITY, priority 2014, dated 2019).

Columns and labels:
RAW 264.7 cells = test: MTT cell viability of RAW 264.7 cells; format: cell-based; conditions: 2.5-10 nM, 24 hours
Protocol: RAW 264.7 cells (a mouse leukaemic monocyte macrophage cell line) were treated with solutions containing liposomal lupeol acetate (10 ? 20 ? 40 ? 80 μM) and NF-kB inhibitor QNZ (2.5 ? 5 ? 7.5 ? 10 nM), respectively, for 24 hours, then the viability was analyzed by MTT method, comparing to the results of the control group.
5×10^4 RAW264.7 cells/well were seeded in 96-well culture dishes, and treated with directed concentration of liposomal lupeol acetate and QNZ for 24 hours after the 24-hr attachment. After removing the culture medium, 100 μl of 0.5 mg/ml MTT solution was added, and the cells were incubated at 37° C. for 4 hours. The mitochondrial enzyme (succinate dehydrogenase, SDH) in living cells will react with tetrazolium bromide in the MTT solution and form formazan blue-purple crystals. The MTT solution was removed and 200 μl DMSO was added to dissolve the blue-purple crystal, and then the O.D. (optical density) value was read under wavelength of 570 nm on an ELISA reader (TECAN Sunrise, USA). The relative cell viability is calculated by comparing the absorbance value of drug treated group with that of the control group (setting the value of control group as 100%).

NFATc1 = NFATc1 expression by real-time Q-PCR under RANKL induction; format: cell-based; conditions: NF-κB inhibitor 5 nM
Excerpt: (§1) The cells were stained with tartrate-resistant acid phosphatase (TRAP) and observed by microscopy to assure the differentiation of osteoclast after the cultivation of five days (Bar=200 μm).
Next, the real time Q-PCR is used for analyzing the change of NFATc1 (nuclear factor of activated T cell, the major factor of osteoclast proliferation and known as cytoplasmic 1) under the RANKL induction and drug treatments.

osteoclasts = test: TRAP staining of RANKL-induced osteoclast differentiation from macrophage; format: cell-based; conditions: 100 ng/ml RANKL, five days
Excerpt: as §1
To evaluate the effects of the liposomal lupeol acetate (Lipo-LA) of present invention on the suppression of rheumatoid arthritis, we firstly analyze the differentiation of osteoclasts from certain cells using the tartrate-resistant acid phosphatase (TRAP) staining method. The TRAP staining is used to detect the internal acid phosphatase activity of leukocytes in a blood, bone or tissue sample. Because osteoclasts contain acid phosphatase, we can use this staining method to determine the formation of osteoclast cells.
After removing the supernatant of culture, the cells are rinsed with PBS for two times, and then fixed with 3.7% paraformaldehyde for 1 hour. The fixed cells are washed with PBS. The Acid Phophatase Leukocyte kit (TRAP stain, Cat. 387-A, Sigma-Aldrich, USA) is used in the TRAP staining and the method is briefly described as follow. Before staining, the temperature of ddH2O used for adjuvant preparation is confirmed to be 37° C. The Fast Garnet GBC base and sodium nitrite solution at equal volumes are uniformly mixed for 30 seconds and incubated at room temperature for at least two minutes. […]

TNF-α = test: Immunohistochemistry of TNF-α in leg joints of CIA mice; format: in vivo, mouse; conditions: 100 mg/kg LA or 50 mg/kg Lipo-LA, day 43, vs RA group
Excerpt: (§2) In FIG. 8A, mice were sacrificed at the end of the animal experiment (day 43), and the legs was removed for the immunohistochemistry (IHC) of TNF-α and IL-1β and H&E staining. The arrows in H&E images indicate the position of articular cavity. There is significant accumulation of TNF-α and IL-1β appeared in the RA group.
(§3) Observing the suppressive effects of Lipo-LA on joint inflammation using immunohistochemistry (IHC). […] The legs of mouse were removed and subjected to paraffin embedding and sectioning. The sections were stained with anti-TNF-α and anti-IL-1β antibodies, respectively to assess the distribution of inflammatory cytokines.

IL-1β = test: Immunohistochemistry of IL-1β in leg joints of CIA mice; format: in vivo, mouse; conditions: 100 mg/kg LA or 50 mg/kg Lipo-LA, day 43, vs RA group
Excerpt: as §2, §3

[1] = test system: inflammatory condition induced by carrageenan; conditions: Lucetti D L et al. J Inflamm 2010; cited from earlier work
rheumatoid arthritis = conditions: US Patent Application no. 20120177754; 100 mg/kg, 12 days needed in mice; cited from earlier work
[2] = test system: collagen-induced arthritis (CIA) in DBA/1J mice; test: Collagen-induced arthritis (CIA) animal model; conditions: oral daily
TGF-β = TGF-β in mouse hind leg proteins, Western blotting; conditions: 100 mg/kg LA or 50 mg/kg Lipo-LA, day 32
Protocol: (§4) The mice were sacrificed by cervical dislocation on the 32nd day of the animal experiment. The whole leg of mouse was removed, and the leg tissue was ground by adding an appropriate amount of lysis buffer (tissue protein extraction reagent, T-PER, Pierce Protein Biology Products, IL, USA), centrifuged at 15,000 rpm for 20 minutes, and the supernatant is taken as the sample for each group.
(§5) Meanwhile, we also use Western blotting to observe the proteins extracted from mouse hind legs, and observe the expression level of immunosuppression-related proteins TGF-β and IL-10 secreted from Treg cells.

IL-10 = IL-10 in mouse hind leg proteins, Western blotting; conditions: 100 mg/kg LA or 50 mg/kg Lipo-LA, day 32
Protocol: as §4, §5

[3] = 100 mg/kg LA or 50 mg/kg Lipo-LA, vs RA group

Q: What does the source list for `Nc1ccc2ncnc(NCCc3ccc(Oc4ccccc4)cc3)c2c1` [QNZ]?
A: cell death of RAW264.7 cells (cell viability, MTT) (RAW 264.7 cells): does not cause significant cell death; expression of NFATc1 (NFATc1): reduces

Q: Which “differentiation of osteoclast from macrophage (TRAP staining)” value (osteoclasts) does the source give for Lupeol acetate [LA] here?
A: inhibitory effects

Q: And the “TNF-α staining (IHC) in joint” value (TNF-α)?
A: improvements

Q: What about the “IL-1β staining (IHC) in joint” value (IL-1β) of the same compound?
A: improvements

Q: What about the “inflammatory condition induced by carrageenan in mice” value [1] of the same compound?
A: effectively mitigate

Q: What about the “inhibiting inflammation and treatment of rheumatoid arthritis” value (rheumatoid arthritis) of the same compound?
A: significant therapeutic effect

Q: And the “arthritis scores (highest 16 points per mouse)” value [2, 3]?
A: significantly less scores

Q: And the foot swelling [2, 3]?
A: significantly reduced

Q: And the incidence of arthritis [2, 3]?
A: decreased incidence percentages

Q: What about the “toxic effects judged by changes in body weight of mice” value ([2]; 100 mg/kg LA) of the same compound?
A: no toxic effects

Q: And the “level of TGF-β” value (TGF-β)?
A: rising trend

Q: And the “level of IL-10” value (IL-10)?
A: rising trend
